Data as given in the NIST ThermoML archive (doi:10.1016/j.jct.2016.10.033).
± gives the expanded uncertainty stated by the source.

Assay: xn = mol fraction of the nth substance listed
Conditions: 103 kPa, Liquid, Vibrating tube method

C=C[Si](OC)(OC)OC [trimethoxy(vinyl)silane] + CO[Si](C)(OC)c1ccccc1
mass density [kg/m3]
Conditions | 298.15 K | 303.15 K | 308.15 K | 313.15 K | 318.15 K
x2 = 0 | 965.69 ± 0.41 | 960.02 ± 0.41 | 954.26 ± 0.41 | 948.47 ± 0.41 | 942.63 ± 0.41
x2 = 0.05 | 968.08 ± 0.41 | 962.41 ± 0.41 | 956.71 ± 0.41 | 950.99 ± 0.41 | 945.24 ± 0.41
x2 = 0.1 | 970.32 ± 0.41 | 964.72 ± 0.41 | 959.1 ± 0.41 | 953.45 ± 0.41 | 947.77 ± 0.41
x2 = 0.1499 | 972.48 ± 0.41 | 966.94 ± 0.41 | 961.39 ± 0.41 | 955.8 ± 0.41 | 950.2 ± 0.41
x2 = 0.2 | 974.57 ± 0.41 | 969.11 ± 0.41 | 963.63 ± 0.41 | 958.1 ± 0.41 | 952.57 ± 0.41
x2 = 0.2501 | 976.61 ± 0.41 | 971.22 ± 0.41 | 965.8 ± 0.41 | 960.36 ± 0.41 | 954.9 ± 0.41
x2 = 0.2999 | 978.59 ± 0.41 | 973.25 ± 0.41 | 967.91 ± 0.41 | 962.52 ± 0.41 | 957.14 ± 0.41
x2 = 0.35 | 980.49 ± 0.41 | 975.22 ± 0.41 | 969.93 ± 0.41 | 964.61 ± 0.41 | 959.27 ± 0.41
x2 = 0.4001 | 982.35 ± 0.41 | 977.14 ± 0.41 | 971.9 ± 0.41 | 966.65 ± 0.41 | 961.37 ± 0.41
x2 = 0.4501 | 984.15 ± 0.41 | 978.99 ± 0.41 | 973.81 ± 0.41 | 968.61 ± 0.41 | 963.4 ± 0.41
x2 = 0.5 | 985.89 ± 0.41 | 980.79 ± 0.41 | 975.67 ± 0.41 | 970.52 ± 0.41 | 965.37 ± 0.41
x2 = 0.5499 | 987.58 ± 0.41 | 982.53 ± 0.41 | 977.46 ± 0.41 | 972.37 ± 0.41 | 967.27 ± 0.41
x2 = 0.6 | 989.22 ± 0.41 | 984.22 ± 0.41 | 979.2 ± 0.41 | 974.17 ± 0.41 | 969.12 ± 0.41
x2 = 0.6499 | 990.82 ± 0.41 | 985.86 ± 0.41 | 980.89 ± 0.41 | 975.91 ± 0.41 | 970.93 ± 0.41
x2 = 0.7 | 992.37 ± 0.41 | 987.46 ± 0.41 | 982.54 ± 0.41 | 977.6 ± 0.41 | 972.65 ± 0.41
x2 = 0.75 | 993.89 ± 0.41 | 989.02 ± 0.41 | 984.15 ± 0.41 | 979.26 ± 0.41 | 974.36 ± 0.41
x2 = 0.8001 | 995.35 ± 0.41 | 990.53 ± 0.41 | 985.7 ± 0.41 | 980.86 ± 0.41 | 976.01 ± 0.41
x2 = 0.8498 | 996.76 ± 0.41 | 991.99 ± 0.41 | 987.21 ± 0.41 | 982.41 ± 0.41 | 977.61 ± 0.41
x2 = 0.8999 | 998.15 ± 0.41 | 993.42 ± 0.41 | 988.68 ± 0.41 | 983.93 ± 0.41 | 979.18 ± 0.41
x2 = 0.9499 | 999.49 ± 0.41 | 994.81 ± 0.41 | 990.11 ± 0.41 | 985.41 ± 0.41 | 980.69 ± 0.41
